From paper PMC9326368, “A Novel PARP Inhibitor YHP-836 For the Treatment of BRCA-Deficiency Cancers” (Frontiers in Pharmacology, 2022)

Columns and labels:
PARP1 = PARP1 (Homo sapiens, UniProt P09874); test: PARP1 enzymatic assay on histone-coated plate with NAD+, PAR product detection; type: biochemical
PARP2 = PARP2 (Homo sapiens, UniProt Q9UGN5); test: PARP2 enzymatic assay on histone-coated plate with NAD+, PAR product detection; type: biochemical
Chain of PARP2 (Q9UGN5 whole entry): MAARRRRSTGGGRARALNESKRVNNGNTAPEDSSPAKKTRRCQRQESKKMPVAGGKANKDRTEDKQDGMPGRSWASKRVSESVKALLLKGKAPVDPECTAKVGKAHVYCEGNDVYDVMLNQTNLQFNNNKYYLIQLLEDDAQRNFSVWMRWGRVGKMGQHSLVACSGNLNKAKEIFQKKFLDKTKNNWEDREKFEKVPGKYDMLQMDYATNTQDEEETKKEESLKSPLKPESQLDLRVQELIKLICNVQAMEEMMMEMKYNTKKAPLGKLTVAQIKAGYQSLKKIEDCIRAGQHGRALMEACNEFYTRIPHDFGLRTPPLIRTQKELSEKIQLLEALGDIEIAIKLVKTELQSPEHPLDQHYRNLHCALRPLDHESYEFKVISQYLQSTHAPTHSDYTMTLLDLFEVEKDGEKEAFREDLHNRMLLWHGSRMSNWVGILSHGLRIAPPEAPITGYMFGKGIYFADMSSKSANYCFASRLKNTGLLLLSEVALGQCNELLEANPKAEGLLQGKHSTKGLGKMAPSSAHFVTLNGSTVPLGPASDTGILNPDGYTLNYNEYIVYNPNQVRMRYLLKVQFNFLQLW

Chain of PARP1 (P09874 2-1014): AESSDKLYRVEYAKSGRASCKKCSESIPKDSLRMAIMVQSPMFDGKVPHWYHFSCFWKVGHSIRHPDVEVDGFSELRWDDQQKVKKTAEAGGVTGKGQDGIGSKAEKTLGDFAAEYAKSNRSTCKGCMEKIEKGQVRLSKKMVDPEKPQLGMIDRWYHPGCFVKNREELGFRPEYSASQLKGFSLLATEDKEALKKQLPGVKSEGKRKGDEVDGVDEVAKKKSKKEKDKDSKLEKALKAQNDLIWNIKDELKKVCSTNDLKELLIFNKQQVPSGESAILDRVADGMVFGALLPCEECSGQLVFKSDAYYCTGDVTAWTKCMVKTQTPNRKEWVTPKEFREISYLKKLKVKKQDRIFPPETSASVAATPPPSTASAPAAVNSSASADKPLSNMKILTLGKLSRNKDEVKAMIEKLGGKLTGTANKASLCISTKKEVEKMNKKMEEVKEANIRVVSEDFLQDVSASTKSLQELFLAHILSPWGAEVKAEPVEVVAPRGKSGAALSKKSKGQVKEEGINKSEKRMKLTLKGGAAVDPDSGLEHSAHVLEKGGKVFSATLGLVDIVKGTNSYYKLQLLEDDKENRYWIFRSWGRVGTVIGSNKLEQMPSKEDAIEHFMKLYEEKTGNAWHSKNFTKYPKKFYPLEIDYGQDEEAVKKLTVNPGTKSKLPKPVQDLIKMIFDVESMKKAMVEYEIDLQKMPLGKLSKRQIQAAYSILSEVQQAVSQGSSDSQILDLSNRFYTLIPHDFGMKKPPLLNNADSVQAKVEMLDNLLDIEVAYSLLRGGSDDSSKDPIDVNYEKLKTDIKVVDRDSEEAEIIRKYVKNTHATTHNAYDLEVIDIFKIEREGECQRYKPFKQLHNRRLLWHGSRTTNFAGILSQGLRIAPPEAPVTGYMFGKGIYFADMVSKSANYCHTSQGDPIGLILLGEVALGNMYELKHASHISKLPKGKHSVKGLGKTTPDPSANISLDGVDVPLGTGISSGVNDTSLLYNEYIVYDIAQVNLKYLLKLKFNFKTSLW

IC50 (PARP1): 6.33 nM
IC50 (PARP2): 3.62 nM
Compound: O=C(c1cc(Cn2c(=O)[nH]c(=O)c3ccccc32)ccc1F)N1CCN(CC(F)(F)F)CC1 [YHP-836]
